ChEMBL document CHEMBL5608189, “Design and synthesis of unique indole-benzosulfonamide oleanolic acid derivatives as potent antibacterial agents against MRSA” (Eur J Med Chem, 2024)
Converted amounts (≈) assume the structure as drawn. The source made the active and inactive calls. The rule behind the calls is not given here.

Legend:
[1] = tested on: Staphylococcus aureus; experiment: Antibacterial activity against methicillin-resistant Staphylococcus aureus measured after 24 hrs by susceptibility assay; assay type: functional
[2] = tested on: Staphylococcus aureus; experiment: Resistant development in methicillin-resistant Staphylococcus aureus assessed as increase in MIC at sub-MIC measured after 20 passages; assay type: functional, organism-based
[3] = tested on: Staphylococcus aureus; experiment: Antibacterial activity against methicillin-resistant Staphylococcus aureus assessed as delay in bacterial growth at 0.5 times MIC measured every 2 hrs for 24 hrs by time kill assay; assay type: functional, organism-based
[4] = tested on: Staphylococcus aureus; experiment: Bactericidal activity against methicillin-resistant Staphylococcus aureus measured after 24 hrs; assay type: functional
[5] = tested on: Staphylococcus epidermidis; experiment: Bactericidal activity against Staphylococcus epidermidis ATCC 12228 measured after 24 hrs; assay type: functional
[6] = tested on: Cell membrane; experiment: Induction of cell membrane in methicillin-resistant Staphylococcus aureus assessed as increase in fluorescence intensity by measuring number of PI-permeable cells at 4 times MIC measured after 2 hrs by PI staining based flow cytometry analysis (reference value: 5.71); assay type: cell membranes
[7] = tested on: Staphylococcus aureus; experiment: Antibiofilm activity in methicillin-resistant Staphylococcus aureus assessed as inhibition of biofilm formation at 16 times MIC measured after 24 hrs by crystal violet staining based analysis relative to control; assay type: functional
[8] = tested on: Staphylococcus aureus; experiment: Antibacterial activity against Staphylococcus aureus ATCC 6538 assessed as inhibition of bacterial growth at 1 times MIC measured every 2 hrs for 24 hrs by time kill assay; assay type: functional, organism-based
[9] = tested on: Staphylococcus aureus; experiment: Induction of intracellular ROS accumulation in methicillin-resistant Staphylococcus aureus assessed as number of fluorescence cells at 2 times MIC incubated for 6 hrs by DCFH-DA staining based flow cytometry analysis (reference value: 3.88)
[10] = tested on: Staphylococcus aureus; experiment: Bactericidal activity against Staphylococcus aureus ATCC 6538 measured after 24 hrs; assay type: functional
[11] = Toxicity in female C57BL/6 mouse assessed as edema in skin at 10 to 30 mg/kg administered daily for 3 days; assay type: organism-based; conditions: in vivo, 72 h, dose 10-30 mg/kg, time 3 day
[12] = tested on: Staphylococcus aureus; experiment: Antibiofilm activity in methicillin-resistant Staphylococcus aureus assessed as eradication of formed biofilm by measuring reduction in biofilm mass at 1 times MIC measured after 24 hrs by crystal violet staining based analysis relative to control; assay type: functional; design: scale not given: the % may be the effect or the level left
[13] = tested on: Staphylococcus aureus; experiment: Antibacterial activity against Staphylococcus aureus ATCC 6538 measured after 24 hrs by susceptibility assay; assay type: functional
[14] = tested on: Staphylococcus aureus; experiment: Antibacterial activity against methicillin-resistant Staphylococcus aureus assessed as inhibition of bacterial growth at 1 times MIC measured every 2 hrs for 24 hrs by time kill assay; assay type: functional, organism-based
[15] = tested on: Cell membrane; experiment: Induction of cell membrane damage in methicillin-resistant Staphylococcus aureus assessed as increase in red fluorescence in PI channel at 8 times MIC incubated for 4 hrs by Calcein-AM/PI staining based confocal microscopic analysis; assay type: cell membranes
[16] = tested on: Staphylococcus aureus; experiment: Antibacterial activity against Staphylococcus aureus ATCC 6538 assessed as inhibition of bacterial growth at 2 to 4 times MIC measured every 2 hrs for 24 hrs by time kill assay relative to control; assay type: functional
[17] = tested on: Cell membrane; experiment: Induction of membrane depolarization in methicillin-resistant Staphylococcus aureus assessed as increase in fluorescence intensity at 1 to 8 times MIC measured after 30 mins by DiSC3(5) dye based spectrofluorometer; assay type: cell membranes
[18] = tested on: Cell membrane; experiment: Induction of cell membrane in methicillin-resistant Staphylococcus aureus assessed as increase in fluorescence intensity by measuring number of PI-permeable cells at 2 times MIC measured after 2 hrs by PI staining based flow cytometry analysis (reference value: 5.71); assay type: cell membranes
[19] = Toxicity in female C57BL/6 mouse assessed as changes in skin tissue at 10 to 30 mg/kg administered daily for 3 days and measured on day 4 by H and E staining based microscopic analysis; assay type: organism-based; conditions: in vivo, 96 h, dose 10-30 mg/kg, time 4 day
[20] = tested on: Staphylococcus aureus; experiment: Induction of intracellular ROS accumulation in methicillin-resistant Staphylococcus aureus assessed as number of fluorescence cells at 4 times MIC incubated for 6 hrs by DCFH-DA staining based flow cytometry analysis (reference value: 3.88)
[21] = tested on: Staphylococcus aureus; experiment: Antibacterial activity against methicillin-resistant Staphylococcus aureus assessed as reduction in metabolic activity at 8 times MIC measured after 24 hrs by alamar blue assay relative to control; assay type: functional; design: scale not given: the % may be the effect or the level left
[22] = tested on: Staphylococcus aureus; experiment: Antibacterial activity against Staphylococcus aureus ATCC 29213 measured after 24 hrs by susceptibility assay; assay type: functional
[23] = tested on: Staphylococcus aureus; experiment: Antibacterial activity against methicillin-resistant Staphylococcus aureus infected in female C57BL/6 mouse wound model assessed as reduction in wound area at 30 mg/kg administered twice on wounds with 6 hrs interval and measured for 7 days; assay type: functional, organism-based; conditions: time 7.0 day
[24] = tested on: NIH3T3; experiment: Cytotoxicity against mouse NIH3T3 cells assessed as reduction in cell viability upto 64 times MIC incubated for 24 hrs by CCK-8 assay; assay type: toxicity, cell-based; conditions: nih3t3, 24 h
[25] = tested on: Staphylococcus epidermidis; experiment: Antibacterial activity against Staphylococcus epidermidis ATCC 12228 assessed as inhibition of bacterial growth at 1 times MIC measured every 2 hrs for 24 hrs by time kill assay; assay type: functional, organism-based
[26] = tested on: Cell membrane; experiment: Disruption of cell membrane integrity in methicillin-resistant Staphylococcus aureus assessed as rupture of cell membrane at 8 times MIC incubated for 8 hrs by TEM analysis; assay type: cell membranes
[27] = tested on: Staphylococcus epidermidis; experiment: Antibacterial activity against Staphylococcus epidermidis ATCC 12228 measured after 24 hrs by susceptibility assay; assay type: functional
[28] = tested on: Staphylococcus aureus; experiment: Antibacterial activity against methicillin-resistant Staphylococcus aureus assessed as reduction in metabolic activity at 1 to 8 times MIC measured after 24 hrs by alamar blue assay; assay type: functional, organism-based
[29] = Toxicity in female C57BL/6 mouse assessed as erythema in skin at 10 to 30 mg/kg administered daily for 3 days; assay type: organism-based; conditions: in vivo, 72 h, dose 10-30 mg/kg, time 3 day
[30] = tested on: Staphylococcus aureus; experiment: Antibacterial activity against methicillin-resistant Staphylococcus aureus infected in female C57BL/6 mouse wound model assessed as log reduction in viable bacterial count at 30 mg/kg administered twice on wounds with 6 hrs interval and measured for 7 days; assay type: functional; conditions: time 7 day
[31] = tested on: Staphylococcus aureus; experiment: Induction of morphological changes in methicillin-resistant Staphylococcus aureus assessed as disruption of cellular structure at 8 times MIC incubated for 8 hrs by SEM analysis; assay type: functional, organism-based
[32] = tested on: Staphylococcus epidermidis; experiment: Antibacterial activity against Staphylococcus epidermidis ATCC 12228 assessed as delay in bacterial growth at 0.5 times MIC measured every 2 hrs for 24 hrs by time kill assay; assay type: functional, organism-based
[33] = tested on: Cell membrane; experiment: Disruption of cell membrane integrity in methicillin-resistant Staphylococcus aureus assessed as protein leakage at 8 times MIC incubated for 8 hrs by BCA assay; assay type: cell membranes
[34] = tested on: HEK-293T; experiment: Cytotoxicity against HEK293T cells assessed as reduction in cell viability upto 64 times MIC incubated for 24 hrs by CCK-8 assay; assay type: toxicity, cell-based; conditions: human
[35] = Hemolytic activity in rabbit red blood cells assessed as hemolytic rate at 128 times MIC measured after 1 hr by absorbance based method relative to control; assay type: toxicity, cell-based, Oryctolagus cuniculus, Erythrocyte; conditions: rabbit red blood cells (erythrocytes), read-out: Activity
[36] = tested on: Cell membrane; experiment: Disruption of cell membrane integrity in methicillin-resistant Staphylococcus aureus assessed as leakage of cellular content at 8 times MIC incubated for 8 hrs by TEM analysis; assay type: cell membranes
[37] = tested on: Cell membrane; experiment: Induction of cell membrane in methicillin-resistant Staphylococcus aureus assessed as increase in fluorescence intensity at 1 to 8 times MIC measured after 30 mins by SYTOX green dye based spectrofluorometer; assay type: cell membranes

CC1(C)CC[C@]2(C(=O)NS(=O)(=O)c3ccc(Cl)cc3)CC[C@]3(C)C(=CC[C@@H]4[C@@]5(C)Cc6c([nH]c7c(C(=O)O)cccc67)C(C)(C)[C@@H]5CC[C@]43C)[C@@H]2C1
MIC [1]: 1 µM (≈ 0.745 µg/mL) | Activity [2]: inactive | Activity [3]: Active | MBC [4]: 4 µM (≈ 2.98 µg/mL) | MBC [5]: 2 µM (≈ 1.49 µg/mL) | Activity [6]: 13.5 | inhibition (INH) [7]: 81% | Activity [8]: Active | Activity [9]: 1.57 | MBC [10]: 2 µM (≈ 1.49 µg/mL) | Activity [11]: Non-Toxic | Activity [12]: 52% | MIC [13]: 1 µM (≈ 0.745 µg/mL) | Activity [14]: Active | Activity [15]: Active | inhibition (INH) [16]: 100% | Activity [17]: Dose-Dependent Effect | Activity [18]: 11.6 | Activity [19]: Non-Toxic | Activity [20]: 1.91 | Activity [21]: 55% | MIC [22]: 2 µM (≈ 1.49 µg/mL) | Activity [23]: Active | Activity [24]: Non-Toxic | Activity [25]: Active | Activity [26]: Active | MIC [27]: 2 µM (≈ 1.49 µg/mL) | Activity [28]: Dose-Dependent Effect | Activity [29]: Non-Toxic | log(activity) [30]: 2.5 | Activity [31]: Active | Activity [32]: Active | Activity [33]: 168 µg/mL | Activity [34]: Non-Toxic | hemolysis at 1 h, 128 times MIC [35]: < 5% | Activity [36]: Active | Activity [37]: Dose-Dependent Effect
